For one data set, the system named is Sertoli cells (TM4). The data set is described as follows: cells. It is filed as cell-based, mouse. The following applies: Sertoli Cell, highest concentration tested assigned as IC50 where viability did not decrease 50%, read-out: IC50.
The subject of another data set is Leydig cells (TM3). The data set is described as follows: cells. It counts as cell-based, mouse. The following applies: Leydig Cell, highest concentration tested assigned as IC50 where viability did not decrease 50%, read-out: IC50.
Data set [1] relates to reproductive system. As to conditions: in rats; cited from earlier work.
Data set [2] concerns reproductive system. As to conditions: based on ToxCast database and literature search; cited from earlier work.
For data set [3], the system named is testicular co-culture: spermatogonial cells (C18-4), Sertoli cells (TM4), Leydig cells (TM3). As to conditions: for pIC50: Co-culture, highest concentration tested assigned as IC50 where viability did not decrease 50%.
In data set [4] the test system is testicular co-culture (spermatogonial, Sertoli, Leydig cells). The data set is described as follows: Multi-parametric high-content assay of the co-culture treated with cadmium. The following applies: 0.05, 0.25, 0.50 and 1.0 μM for 48 h. It counts as cell-based, mouse. The text has this: All cultures were viewed with an Olympus inverted microscope equipped with phase-contrast optics (Olympus, Tokyo, Japan) at intervals during the culture to assess their general appearance. Images were captured and digitized with a Nikon Camera. To further examine the morphology of the cultured cells, a multi-parametric high-content analysis (HCA) was applied to quantify the F-actin cytoskeleton, nuclear shape, and cell proliferation. The spermatogonial cells were identified using typical markers of mouse germ cell nuclear antigen (GCNA1) (Developmental Studies Hybridoma Bank, http://dshb.biology.uiowa.edu, Iowa, IA)(Enders and May, 1994). Leydig cells were identified using steroidogenic acute regulatory protein (StAR)(Clark et al., 1994) (kindly gifted by Dr. Douglas M. Stocco, Texas Tech University). Sertoli cells were stained with SOX9 (Developmental Studies Hybridoma Bank, Iowa, IA). After culture for 48 and 72 h, cells were washed with phosphate buffered saline (PBS), fixed with 4% formaldehyde for 20 min at room temperature, and then washed with PBS three times. […] The multichannel images were automatically captured using an Arrayscan VTI HCS reader with a Studio 2.0 Target Activation BioApplication module (Thermo Scientific, MA). […]
Single-cell based High-content Analysis (HCA) provided multi-parameter phenotypic profiling characterization, including number, nuclear area, shape, and intensity, as previously reported (Liang et al., 2017). […] With 36 fields of each well, at least 4000 cells were analyzed per well, and single-cell based data for each channel were exported for further statistical analysis. […]
For quantitative analysis of three-dimensional F-actin cytoskeleton, we applied the Cytoskeletal Re-arrangement Assay in the Morphology Explorer Bioapplication (ThermoScientific, MA) to determine the number, dimensions and alignment—as well as the texture—of actin fibers based on the manufacturer's guideline (ThermoFisher, 2010). […]

In data set [5] the test system is Spermatogonial cells (C18-4). The data set is described as follows: cells. It counts as cell-based, mouse. The following applies: Spermatogonial Cell, highest concentration tested assigned as IC50 where viability did not decrease 50%, read-out: IC50.

pIC50: −log10 of the molar value. Read-outs that look alike come from different tables or passages of the source.

`[Cl][Cd][Cl]` [Cd, Cadmium chloride]: the negative logarithm of the IC50 (pIC50) in the data set on Sertoli cells (TM4) (24 h) is 4.84; in the data set with Sertoli cells (TM4) (48 h), 5.02; in the data set on Leydig cells (TM3) (24 h) it was 4.80; with Leydig cells (TM3) (48 h) it was 5.07; in data set [3] (24 h), 4.95; in data set [3] (48 h), 5.38. For the same compound, the pIC50 in data set [5] (24 h) and in data set [5] (48 h) was 5.68 each time. Further, the “reproductive LOAEL” value in the data set with reproductive system [1] is 0.088 mg/kg/day. Besides, the “In vivo Reproductive Toxicity” value in the data set on reproductive system [2] is “+”. The “effect on cell viability (NR uptake), in words” value in data set [3] (co-culture, 48 h treatment, FIG. 6) is “most toxic”. In addition, the F-actin cytoskeletal structure result in data set [4] is on record as “destruction of cytoskeletal structure”. Besides, the “cell proliferation (cell number)” value in data set [4] is recorded as “decrease of cell proliferation (cell number)”. Moreover, the γH2AX foci formation result in data set [4] (dose-dependent) is listed as “significantly induced phosphorylation of γH2AX foci formation”.

The values above are taken from US20180371408A1, “CELL CULTURES AND METHODS OF USE” (priority 2017, published 2018).
